Test results taken from patent US9133262B2, “Somatostatin antagonists” (Ipsen Pharma S.A.S., priority 1996, dated 2015).
Positions of bridges follow the written chain, without caps; N, C: chain ends. Non-standard residues stand in square brackets, D forms with d. Residues, ends and D or L forms follow the SMILES beside them. Phe(4-Cl) = N[C@@H](Cc1ccc(Cl)cc1)C(=O)O; dPhe(4-Cl) = N[C@H](Cc1ccc(Cl)cc1)C(=O)O; 2Nal = N[C@@H](Cc1ccc2ccccc2c1)C(=O)O; d2Nal = N[C@H](Cc1ccc2ccccc2c1)C(=O)O; 3Pal = N[C@@H](Cc1cccnc1)C(=O)O; Tle = CC(C)(C)[C@H](N)C(=O)O

system: rat pituitary cells; assay type: cell-based; conditions: 3 h
From the text: Bioassay on the In Vitro Release of Growth Hormone
(a) Rat Pituitary Cell Dispersion
Pituitaries from adult Charles River CD male rats (Wilmington, Mass.) housed under controlled conditions were dispersed and cultured using aseptic technique by modification of previously described methods (Hoefer, M. T., et al., Mol. Cell. Endocrinol. 35:229 (1984); Ben-Jonathan, N., et al., Methods Enzymol. 103:249 (1983); and Heiman, M. L., et al., Endocrinology 116:410 (1985)). Pituitaries were removed from sacrificed rats, sectioned, and then placed into a siliconized, liquid scintillation vial containing 2 ml 0.2% trypsin (Worthington Biochemicals, Freehold, N.J.) in sterile-filtered Krebs-Ringer bicarbonate buffer supplemented with 1% bovine serum albumin, 14 mM glucose, modified Eagle medium (MEM) vitamin solution, and MEM amino acids (Gibco Laboratories, Grand Island, N.Y.) (KRBGA). All glassware was siliconized as described by Sayers, et al., Endocrinology 88:1063 (1971). The fragments were incubated in a water bath for 35 min at 37° C. with agitation. The vial contents then were poured into a scintillation vial containing 2 ml 0.1% DNase (Sigma Chemical Co., St. Louis, Mo.) in KRBGA and incubated for 2 min at 37° C. with agitation. After incubation, the tissue was decanted into a 15 ml centrifuge tube and allowed to settle. Medium was discarded, and pituitary sections were washed 3 times with 1 ml fresh-KRBGA. The cells were then dispersed in 2 ml 0.05% LBI (lima bean trypsin inhibitor, Worthington Biochemicals) by gently drawing the fragments into and expelling them out of a siliconized, fire polished Pasteur pipette. Dispersed cells were then filtered through a 630 μm diameter Nylon mesh (Tetko, Elmsford, N.Y.) into a fresh 15 ml centrifuge tube. An additional 2 ml of 0.05% LBI solution was used to rinse the first tube and was transferred to the second tube with filtering.
The dispersed cells were then further diluted with approximately 15 ml sterile-filtered Dulbecco's modified Eagle medium (GIBCO), which was supplemented with 2.5% fetal calf serum (GIBCO), 3% horse serum (GIBCO), 10% fresh rat serum (stored on ice for no longer than 1 hr) from the pituitary donors, 1% MEM non-essential amino acids (GIBCO), and gentamycin (10 ng/ml; Sigma) and nystatin (10,000 U/ml; GIBCO). The cells were poured into a 50 ml round-bottomed glass extraction flask with a large diameter opening and then randomly plated at a density of approximately 200,000 cells per well (Co-star cluster 24; Rochester Scientific Co., Rochester, N.Y.). The plated cells were maintained in the above Dulbecco's medium in a humidified atmosphere of 95% air and 5% CO2 at 37° C. for 4-5 days.
(c) Experimental Incubation and IC50 Determination
In preparation for a hormone challenge, the cells were washed 3 times with medium 199 (GIBCO) to remove old medium and floating cells. Each treatment well contained a total volume of 1 ml medium 199 containing 1% BSA (fraction V; Sigma) with treatments as described below. Each antagonist candidate was tested using a single 24-well cell culture plate. Each treatment was performed in triplicate. Each plate contained 8 treatment groups: one 1 nM growth hormone releasing factor (GRF) (1-29)NH2-stimulated control group; one 1 nM somatostatin-inhibited control group in the presence of 1 nM GRF(1-29)NH2; and 6 doses of a given antagonist in the presence of both 1 nM SRIF and 1 nM GRF per plate. After 3 hrs at 37° C. in a air/carbon dioxide atmosphere (95/5%), the medium was removed and stored at −20° C. until radioimmunoassayed for growth hormone content. IC50's of each antagonist versus 1 nM SRIF were calculated using a computer program (SigmaPlot, Jandel Scientific, San Rafael, Calif.) with the maximum response constrained to the value of the 1 nM GRF(1-29)NH2-stimulated control.

IC50 [nM] | SMILES
3030 | CC(C)[C@H](NC(=O)[C@H](CCCCN)NC(=O)[C@@H](Cc1c[nH]c2ccccc12)NC(=O)[C@H](Cc1ccc(O)cc1)NC(=O)[C@@H](Cc1ccc(Cl)cc1)NC(=O)[C@@H](N)Cc1ccc2ccccc2c1)C(=O)N[C@@H](Cc1ccccc1)C(=O)N[C@H](C(N)=O)[C@@H](C)O [Analog No. 1, H2-β-Nal-D-Cpa-Tyr-D-Trp-Lys-Val-Phe-Thr-NH2] (H-[2Nal][dPhe(4-Cl)]Y[dW]KVFT-NH2)
10 | CC(C)[C@@H]1NC(=O)[C@H](CCCCN)NC(=O)[C@@H](Cc2c[nH]c3ccccc23)NC(=O)[C@H](Cc2cccnc2)NC(=O)[C@H](NC(=O)[C@@H](N)Cc2ccc3ccccc3c2)CSSC[C@@H](C(=O)N[C@@H](Cc2ccc3ccccc3c2)C(N)=O)NC1=O [Analog No. 3, H2-β-Nal-D-Cys-Pal-D-Trp-Lys-Val-Cys-β-Nal-NH2] (H-[2Nal][dC][3Pal][dW]KVC[2Nal]-NH2; disulfide 2-7)
30 | CC(C)[C@@H]1NC(=O)[C@H](CCCCN)NC(=O)[C@@H](Cc2c[nH]c3ccccc23)NC(=O)[C@H](Cc2cccnc2)NC(=O)[C@H](NC(=O)[C@@H](N)Cc2ccccc2)CSSC[C@@H](C(=O)N[C@@H](Cc2ccc3ccccc3c2)C(N)=O)NC1=O [Analog No. 4, H2-Phe-D-Cys-Pal-D-Trp-Lys-Val-Cys-β-Nal-NH2] (H-F[dC][3Pal][dW]KVC[2Nal]-NH2; disulfide 2-7)
60 | CC(=O)N[C@@H](Cc1ccc2ccccc2c1)C(=O)N[C@@H]1CSSC[C@@H](C(=O)N[C@@H](Cc2ccc3ccccc3c2)C(N)=O)NC(=O)[C@H](C(C)C)NC(=O)[C@H](CCCCN)NC(=O)[C@@H](Cc2c[nH]c3ccccc23)NC(=O)[C@H](Cc2ccc(O)cc2)NC1=O [Analog No. 5, (H)(CH3CO)-β-Nal-D-Cys-Tyr-D-Trp-Lys-Val-Cys-β-Nal-NH2] (Ac-[2Nal][dC]Y[dW]KVC[2Nal]-NH2; disulfide 2-7)
900 | C[C@@H](O)[C@H](NC(=O)[C@@H]1CSSC[C@@H](NC(=O)[C@@H](N)Cc2ccccc2)C(=O)N[C@@H](Cc2cccnc2)C(=O)N[C@H](Cc2c[nH]c3ccccc23)C(=O)N[C@@H](CCCCN)C(=O)N[C@@H]([C@@H](C)O)C(=O)N1)C(N)=O [Analog No. 6, H2-Phe-D-Cys-Pal-D-Trp-Lys-Thr-Cys-Thr-NH2] (H-F[dC][3Pal][dW]KTCT-NH2; disulfide 2-7)
71 | CC(C)(C)[C@@H]1NC(=O)[C@H](CCCCN)NC(=O)[C@@H](Cc2c[nH]c3ccccc23)NC(=O)[C@H](Cc2cccnc2)NC(=O)[C@H](NC(=O)[C@H](N)Cc2ccc(Cl)cc2)CSSC[C@@H](C(=O)N[C@@H](Cc2ccc(Cl)cc2)C(N)=O)NC1=O [Analog No. 7, H2-D-p-Cl-Phe-D-Cys-Pal-D-Trp-Lys-Tle-Cys-p-Cl-Phe-NH2] (H-[dPhe(4-Cl)][dC][3Pal][dW]K[Tle]C[Phe(4-Cl)]-NH2; disulfide 2-7)
3960 | CC(C)[C@H](NC(=O)[C@H](CCCCN)NC(=O)[C@@H](Cc1c[nH]c2ccccc12)NC(=O)[C@H](Cc1ccc(O)cc1)NC(=O)[C@@H](Cc1ccc(Cl)cc1)NC(=O)[C@H](N)Cc1ccc2ccccc2c1)C(=O)N[C@@H](Cc1ccccc1)C(=O)N[C@H](C(N)=O)[C@@H](C)O [Analog No. 8, H2-D-β-Nal-D-Cpa-Tyr-D-Trp-Lys-Val-Phe-Thr-NH2] (H-[d2Nal][dPhe(4-Cl)]Y[dW]KVFT-NH2)

same assay, conditions: cultured rat pituitary cells; 1 nM SRIF and 1 nM GRF(1-29)NH2; 3 hrs at 37° C.; growth hormone by radioimmunoassay; read-out: IC50 of antagonist versus 1 nM SRIF (growth hormone release)

SMILES | IC50 [nM]
CC(C)[C@@H]1NC(=O)[C@H](CCCCN)NC(=O)[C@@H](Cc2c[nH]c3ccccc23)NC(=O)[C@H](Cc2ccc(O)cc2)NC(=O)[C@H](NC(=O)[C@@H](N)Cc2ccc3ccccc3c2)CSSC[C@@H](C(=O)N[C@@H](Cc2ccc3ccccc3c2)C(N)=O)NC1=O [Analog No. 2, H2-β-Nal-D-Cys-Tyr-D-Trp-Lys-Val-Cys-β-Nal-NH2] (H-[2Nal][dC]Y[dW]KVC[2Nal]-NH2; disulfide 2-7) | 40
